PubChem BioAssay (NCI)
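Abbreviation: GI50, concentration required for 50% inhibition of growth. TGI marks complete inhibition of growth.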

Tests used:
Test in all cases: inhibition of tumour cell growth, NCI panel, 384-well format; in the data active means GI50 below about 0.43 µM; inactive means the rest
[1] = test system: SN12C renal
[2] = test system: A498 renal
[3] = test system: U251 glioblastoma
[4] = test system: SK-MEL-2 melanoma
[5] = test system: SF-539 CNS
[6] = test system: DU-145 prostate
[7] = test system: SF-295 CNS
[8] = test system: CAKI-1 renal
[9] = test system: IGROV1 ovarian
[10] = test system: OVCAR-3 ovarian
[11] = test system: NCI-H460 NSCLC
[12] = test system: RPMI-8226 leukemia
[13] = test system: COLO 205 colon
[14] = test system: HS 578T breast
[15] = test system: SK-OV-3 ovarian
[16] = test system: MOLT-4 leukemia
[17] = test system: M14 melanoma
[18] = test system: MCF7 breast
[19] = test system: T-47D breast
[20] = test system: RXF 393 renal
[21] = test system: HOP-62 NSCLC
[22] = test system: MDA-MB-231 breast
[23] = test system: HT29 colon
[24] = test system: NCI-H23 lung
[25] = test system: SNB-75 CNS
[26] = test system: OVCAR-5 ovarian
[27] = test system: NCI/ADR-RES ovarian
[28] = test system: SR leukemia
[29] = test system: HL-60(TB) leukemia
[30] = test system: NCI-H522 lung
[31] = test system: CCRF-CEM leukemia
[32] = test system: 786-0 renal
[33] = test system: PC-3 prostate
[34] = test system: UO-31 renal
[35] = test system: MDA-MB-435 melanoma
[36] = test system: KM12 colon
[37] = test system: LOX IMVI melanoma
[38] = test system: TK-10 renal
[39] = test system: SW-620 colon
[40] = test system: HCT-116 colon
[41] = test system: OVCAR-8 ovarian
[42] = test system: NCI-H322M lung
[43] = test system: MALME-3M melanoma
[44] = test system: K-562 leukemia
[45] = test system: SF-268 CNS
[46] = test system: SK-MEL-28 melanoma
[47] = test system: SK-MEL-5 melanoma

Cn1cc(-c2ccc(-c3cncc(Cl)c3N3CCC4(CCNC4=O)CC3)cc2)cn1
inactive: GI50 [1] 45.2 µM | GI50 [2] 4.45 µM | GI50 [3] 30.4 µM | GI50 [4] 16.9 µM | GI50 [5] 41.4 µM | GI50 [6] 11 µM | GI50 [7] 25.2 µM | GI50 [8] 22.5 µM | GI50 [9] 25.2 µM | GI50 [10] 17.3 µM | GI50 [11] 21.1 µM | GI50 [12] 1.17 µM | GI50 [13] 16.3 µM | GI50 [14] 49.1 µM | GI50 [15] 34 µM | GI50 [16] 6.92 µM | GI50 [17] 39.4 µM | GI50 [18] 15.9 µM | GI50 [19] 13.5 µM | GI50 [20] 14.7 µM | GI50 [21] 15.2 µM | GI50 [22] 17.1 µM | GI50 [23] 9.55 µM | GI50 [24] 22.5 µM | GI50 [25] 40 µM | GI50 [26] > 100 µM | GI50 [27] 22.1 µM | GI50 [29] 1.73 µM | GI50 [30] 13.1 µM | GI50 [31] 8.63 µM | GI50 [32] 11.8 µM | GI50 [33] 26.3 µM | GI50 [34] 26.9 µM | GI50 [35] 30.1 µM | GI50 [36] 21.3 µM | GI50 [37] 29.5 µM | GI50 [38] 11.2 µM | GI50 [39] 12.3 µM | GI50 [40] 13.8 µM | GI50 [41] 25.1 µM | GI50 [42] 22.3 µM | GI50 [43] 30.3 µM | GI50 [44] 19 µM | GI50 [45] 45.8 µM | GI50 [46] 20 µM | GI50 [47] 15.6 µM
0.485 µM: TGI [28]
23.9 µM: TGI [31]
> 71.5 µM: TGI [27]
> 65.3 µM: TGI [46]
48.4 µM: TGI [19]
52.8 µM: TGI [18]
18.4 µM: TGI [12]
> 60 µM: TGI [13]
99.9 µM: TGI [38]
> 87.2 µM: TGI [7]
24.2 µM: TGI [16]
47.3 µM: TGI [40]
33.1 µM: TGI [2]
39.2 µM: TGI [4]
> 100 µM: TGI [1] | TGI [5] | TGI [8] | TGI [9] | TGI [14] | TGI [15] | TGI [17] | TGI [26] | TGI [33] | TGI [34] | TGI [41] | TGI [43] | TGI [44] | TGI [45]
> 95.3 µM: TGI [42]
> 92.2 µM: TGI [32]
> 93.3 µM: TGI [23]
33.5 µM: TGI [47]
59 µM: TGI [24]
> 86.5 µM: TGI [39]
> 75.1 µM: TGI [37]
48.2 µM: TGI [30]
> 80.1 µM: TGI [3]
51.3 µM: TGI [10]
> 95.9 µM: TGI [25]
> 96.1 µM: TGI [20]
> 94.3 µM: TGI [36]
39.9 µM: TGI [21]
62.2 µM: TGI [6] | TGI [11]
> 76.7 µM: TGI [22]
> 91.6 µM: TGI [35]
5.74 µM: TGI [29]

COc1ccc2c(Oc3ccc(NC(=O)c4c(C)n(CC(C)(C)O)n(-c5ccccc5)c4=O)nc3)ccnc2c1
19 µM: TGI [28]
100 µM: TGI [38]
64 µM: TGI [5]
9.27 µM: TGI [20]
> 100 µM: TGI [2] | TGI [3] | TGI [6] | TGI [7] | TGI [8] | TGI [9] | TGI [11] | TGI [13] | TGI [15] | TGI [18] | TGI [19] | TGI [21] | TGI [23] | TGI [24] | TGI [26] | TGI [27] | TGI [32] | TGI [33] | TGI [34] | TGI [36] | TGI [37] | TGI [39] | TGI [41] | TGI [42] | TGI [45] | TGI [47]
60 µM: TGI [43]
84.8 µM: TGI [46]
30.2 µM: TGI [40]
19.4 µM: TGI [12]
22 µM: TGI [31]
inactive: GI50 [1] 2.24 µM | GI50 [2] 4.43 µM | GI50 [3] 24.7 µM | GI50 [4] 13 µM | GI50 [5] 10.1 µM | GI50 [6] 8.18 µM | GI50 [7] 13.9 µM | GI50 [8] 3.45 µM | GI50 [9] 9.46 µM | GI50 [10] 13 µM | GI50 [11] 14.3 µM | GI50 [12] 6.85 µM | GI50 [13] 42.2 µM | GI50 [14] 4.65 µM | GI50 [15] 4.04 µM | GI50 [16] 3.58 µM | GI50 [17] 6.34 µM | GI50 [18] 46.4 µM | GI50 [19] 33.7 µM | GI50 [20] 2.42 µM | GI50 [21] 15.3 µM | GI50 [22] 9.28 µM | GI50 [23] 39.9 µM | GI50 [24] 10.8 µM | GI50 [25] 7.61 µM | GI50 [26] 37.8 µM | GI50 [27] 25.7 µM | GI50 [28] 6.58 µM | GI50 [29] 5.49 µM | GI50 [30] 14.4 µM | GI50 [31] 10.3 µM | GI50 [32] 19.8 µM | GI50 [33] 18.5 µM | GI50 [34] 18.4 µM | GI50 [35] 12.3 µM | GI50 [36] 0.73 µM | GI50 [37] 47.2 µM | GI50 [38] 10.8 µM | GI50 [39] 56.2 µM | GI50 [40] 10.5 µM | GI50 [41] 13.8 µM | GI50 [42] 10.3 µM | GI50 [43] 5.26 µM | GI50 [44] 1.16 µM | GI50 [45] 19.9 µM | GI50 [46] 25.2 µM | GI50 [47] 13.8 µM
31.6 µM: TGI [10]
86.8 µM: TGI [1]
53.7 µM: TGI [35]
2.51 µM: TGI [44]
33.4 µM: TGI [4]
12.4 µM: TGI [16]
14.9 µM: TGI [29]
29.1 µM: TGI [22]
70.2 µM: TGI [17]
53.1 µM: TGI [25]
54.1 µM: TGI [30]
34.6 µM: TGI [14]
